Like-named read-outs stand apart in the source and are kept apart here.
How the values were obtained:
[1] = tested on: rat cortical neurons; experiment: Neurite outgrowth assay (Cyprotex); format: cell-based; details: for IC50: Rattus norvegicus, Cortical neurone, 72 h; for window between neurite outgrowth effect concentration and active concentration: effect at 100 µM compared to the active concentration; for effect on valid neuron count, mean neurite average length and neurite total length per neuron: only at 100 µM (top concentration tested); for effect on neurite outgrowth in relation to effect on cell viability: rat cortical neurons; for cell-toxic effects: up to a concentration of 50 µM
Protocol: Neurite outgrowth assay. […] were carried out by Cyprotex (an Evotec Company, Toulouse, France), Study No. CYP2052-R1. For an in-depth description, please refer to the report in the supporting information files. Cryo-preserved rat cortical neurons (QBM Cell Science, R-Cx-500) were quickly thawed and slowly diluted with neurobasal medium supplemented with L-glutamine (Invitrogen, Cat. No. 25030-081), penicillin-streptomycin (Invitrogen, Cat. No. 15140-122), and B27 (NB/B27 medium, Invitrogen, Cat. No. 17504-044). After a gentle centrifugation step, the neurons were resuspended in NB/B27 medium at a density of 4.0 × 10^6 cells/mL. One hour prior to treatment, the neurons were plated in 384-well plates (Corning 354663) pre-coated with a laminin solution (Sigma L2020 1 mg/mL) at a density of 10,000 cells per well. After treatment with test articles and control compounds, the neurons were maintained in a humidified environment at 37 °C with 5% CO2 for 72 h. At the end of the treatment period, the neurons were fixed for 1 h with a 3.7% formaldehyde solution (Acros Organics, 41073-0010). The neurons were washed with phosphate buffered saline (PBS) (SH30264.02) and permeabilized for 10 min with a 0.5% solution of Triton X-100 (Millipore Sigma, X100). After another wash step, the neurons were stained for one hour with Hoechst 33342 (ThermoFisher Scientific, H3570) and the anti-beta III tubulin antibody, Alexa Fluor® 488 conjugate (Millipore Sigma AB15708A4), diluted in a blocking buffer solution (Thermo Scientific, 37525). Upon completion of the staining step, the neurons were washed again, and the plates were sealed in preparation for the imaging process. The neurons were evaluated for neurite outgrowth and cell health using the high-content imaging platform, ArrayScan VTi (Thermo Scientific ArrayScan VTi), with an optimized neuronal profiling bio-application.
This assay assessed cell health and neurite outgrowth utilizing a neuronal profiling bio-application applied to images obtained on an ArrayScan VTi. Valid neuron count, mean neurite average length, and neurite total length per neuron were determined and reported. Raw data were normalized to the vehicle control and reported as a normalized% response. Dose response graphs were generated with GraphPad Prism using a sigmoidal dose-response (variable slope) algorithm.

[2] = Compound brain levels after intraperitoneal injection; format: in vivo; details: single intraperitoneal injection, 10 mg/kg, Sprague–Dawley rats
Protocol: Compound brain levels. For an in-depth description of the brain and blood at 7h, we refer to the protocol of Evotec (France, Study No. DMPK-2020-494) in the supplementary information file.

[3] = tested on: Schaffer collateral (SC)-CA1 synapses; experiment: Ex vivo electrophysiology in hippocampal slices of aged rats; design: species or system Sprague–Dawley rats
Protocol: Animals. Male Sprague–Dawley rats (22–23 months old) were bred and kept in the Core Unit of Biomedical Research, Division of Laboratory Animal Science and Genetics, Medical University of Vienna. Rats were housed in groups of two in standard Makrolon cages filled with autoclaved woodchips (temperature: 22 ± 2 °C; humidity: 55 ± 5%; 12 h artificial light/12 h dark cycle: light on at 7:00 am). Tap water and food were provided ad libitum. The study was carried out according to the guidelines of the ethics committee at the Medical University of Vienna and was approved by the Federal Ministry of Education, Science, and Culture, Austria (BMBWF-66.009/235/V/3b/2018).
Hippocampal Slices Preparation. Acutely dissected hippocampal slices obtained from rat singles administered with vehicle or 10 mg/kg for 7h (1 h prior to brain extraction) were prepared as previously described, with slight modifications. Briefly, rats were anesthetized by 50 s isoflurane inhalation exposure, and (upon the absence of corneal reflexes), animals were decapitated using a high-precision, hardened, sharp-blade rodent guillotine (DCAP-M, World Precision Instruments, Inc., Sarasota, FL, USA). […]
Extracellular recording. […] An AxoClamp-2B amplifier, Digidata-1440 interface (Axon Instruments, Molecular Devices, Berkshire, UK), and pClamp-11 software (Molecular Devices, Berkshire, UK) were used for data acquisition and analysis. fEPSPs were recorded at 0.033 Hz. […]
Hippocampal synaptic potentiation was induced by delivering 4 trains of 20 pulses at 100 Hz (200 μs/pulse) with a 500 ms inter-train interval, a variant of the different forms of HFS protocol known to induce both post-tetanic potentiation (PTP) and long-term potentiation (LTP) in hippocampal CA3-CA1 hippocampal synapses in young rodents. Synaptic plasticity was assessed by quantifying the time course of changes in fEPSP slope (decaying phase) after applying the plasticity-inducing protocol, normalized to the average of all fEPSP slopes recorded during the preceding baseline recording period. […]

[4] = read-out: Mean Neurite Avg. Length IC50, rat cortical neurons, 72 h
[5] = read-out: Neurite Total Length per Neuron IC50, rat cortical neurons, 72 h
[6] = read-out: Valid Neuron Count IC50, rat cortical neurons, 72 h

SMILES	IC50 [1, 4]	IC50 [1, 5]	IC50 [1, 6]	window between neurite outgrowth effect concentration and active concentration [1]	effect on valid neuron count, mean neurite average length and neurite total length per neuron [1]	effect on neurite outgrowth in relation to effect on cell viability [1]	cell-toxic effects [1]	Cmax ([2]; rat, brain, ip)	half-life ([2]; rat, brain, ip)	Tmax ([2]; rat, brain, ip, read-out: median Tmax in the brain)	detectable in brain post-administration [2]	basal synaptic transmission: fEPSP slopes (I/O curves) vs vehicle ([3]; acute 10 mg/kg, aged rats (22–23 months), hippocampal slices)	long-term potentiation (LTP) after HFS vs vehicle ([3]; acute treatment, aged rats, for at least 40 min after HFS)	early post-tetanic potentiation (PTP) responses vs vehicle ([3]; acute treatment, aged rats, right after HFS, Sidak post hoc p < 0.0001)
[O-][S@@+](Cc1cccs1)[C@@H](c1ccccc1)c1cccc(Br)c1 [Compound 7h, (S,S)-2-((((3-bromophenyl)(phenyl)methyl)sulfinyl)methyl)thiophene]	65.8 µM	59.8 µM	92.2 µM	more than 100 fold	significant decreases	not independent of their effect on cell viability	absence of cell-toxic effects	478 ng/g	3 h	1 h	up to 10 h	–	–	–
[O-][S@+](Cc1cccs1)[C@H](c1ccccc1)c1cccc(Br)c1 [Compound 8h, (R,R)-2-((((3-bromophenyl)(phenyl)methyl)sulfinyl)methyl)thiophene]	75.2 µM	72.2 µM	94.6 µM	more than 100 fold	significant decreases	not independent of their effect on cell viability	absence of cell-toxic effects	–	–	–	–	significantly enhanced	significantly increased and maintained LTP	statistically significant (p < 0.0001) enhancement

From publication PMC10527105, “Chirality Matters: Fine-Tuning of Novel Monoamine Reuptake Inhibitors Selectivity through Manipulation of Stereochemistry” (Biomolecules, 2023)
